In series [1] the test system is Lactuca sativa. Nature of the series: Phytotoxicity against Lactuca sativa (lettuce) assessed as reduction of seed germination measured daily for 5 days relative to control. Type of series: functional, organism-based.
Series [2] deals with Lactuca sativa. Nature of the series: Phytotoxicity against Lactuca sativa (lettuce) assessed as reduction of seed germination at 10^-5 M measured daily for 5 days relative to control. On the set-up: scale not given: the % may be the effect or the level left. Type of series: functional.
For series [3], the system named is Lactuca sativa. Nature of the series: Phytotoxicity against Lactuca sativa (lettuce) assessed as reduction of root elongation at 10^-4 M measured daily for 5 days relative to control. Type of series: functional. Further details: scale not given: the % may be the effect or the level left.
Series [4] concerns Lactuca sativa. Put plainly: Phytotoxicity against Lactuca sativa (lettuce) assessed as reduction of shoot elongation at 10^-7 M measured daily for 5 days relative to control. Type of series: functional, organism-based.
Series [5] concerns Lactuca sativa. Put plainly: Stimulation of root elongation in Lactuca sativa (lettuce) at 10^-7 M measured daily for 5 days relative to control. Type of series: organism-based. As to conditions: in vivo, 120 h, 0.1 µM.

Activity calls are given as the source filed them. The calls are words filed in the database; no cut-off is given here.

Take `O=C(O)CCc1ccc(Oc2ccc(CCC(=O)O)cc2)cc1` [APTENIOL A]: the Activity entry with Lactuca sativa [1] was “Dose-dependent effect”; in the series with Lactuca sativa [2] it was 25%; in the series on Lactuca sativa [3], 40%. For the same compound, the outcome with Lactuca sativa [4] was inactive.
For `COc1cc(CCC(=O)O)ccc1Oc1ccc(CCC(=O)O)cc1` [APTENIOL B], the Activity entry was “Dose-dependent effect” in the series with Lactuca sativa [1], 25% in the series on Lactuca sativa [2], 20% with Lactuca sativa [3] and 20% in the series on Lactuca sativa [5].
Regarding `COC(=O)CCc1ccc(Oc2ccc(CCC(=O)OC)cc2OC)cc1` [APTENIOL C], the Activity result in the series with Lactuca sativa [1] is “Dose-dependent effect”; with Lactuca sativa [2] it was 25%. Moreover, the result with Lactuca sativa [3] and with Lactuca sativa [4] was inactive.
For `COc1cc(CCC(=O)O)ccc1Oc1c(OC)cc(CCC(=O)O)cc1OC` [APTENIOL D], the Activity result was “Dose-dependent effect” in the series with Lactuca sativa [1], 25% in the series on Lactuca sativa [2] and 20% in the series on Lactuca sativa [3].
Turning to `COc1cc(CCC(=O)O)cc(OC)c1Oc1c(OC)cc(CCC(=O)O)cc1OC` [APTENIOL E], the Activity entry is “Dose-dependent effect” in the series on Lactuca sativa [1], 25% with Lactuca sativa [2], 20% in the series with Lactuca sativa [3] and 20% in the series with Lactuca sativa [5].
For the compound `COc1cc(CCC(=O)O)ccc1Oc1ccccc1CCC(=O)O` [APTENIOL F], the Activity result in the series with Lactuca sativa [1] was “Dose-dependent effect”; in the series on Lactuca sativa [2], 25%; in the series with Lactuca sativa [3], 20%. Besides, in the series with Lactuca sativa [4], the outcome was inactive.
